# Where two headings read alike, the source gives them in different places.
# What was measured:
# ABL1 wt = ABL1 wt (Homo sapiens (Human), UniProt P00519); type: biochemical
# SRC (GST-HIS-tag) = SRC (GST-HIS-tag) (Homo sapiens (Human), UniProt P12931); type: biochemical
# SIK3 [1] = target: T1, SIK3 (Homo sapiens (Human), UniProt Q9Y2K2)
# SIK2 [2] = target: T2, SIK2 (Homo sapiens (Human), UniProt Q9H0K1); details: read-out: SIK2 IC50
# CSF1R = CSF1R (Homo sapiens (Human), UniProt P07333); type: biochemical; details: Kinase Profiler
# Chain of CSF1R (P07333 20-972 limits assumed): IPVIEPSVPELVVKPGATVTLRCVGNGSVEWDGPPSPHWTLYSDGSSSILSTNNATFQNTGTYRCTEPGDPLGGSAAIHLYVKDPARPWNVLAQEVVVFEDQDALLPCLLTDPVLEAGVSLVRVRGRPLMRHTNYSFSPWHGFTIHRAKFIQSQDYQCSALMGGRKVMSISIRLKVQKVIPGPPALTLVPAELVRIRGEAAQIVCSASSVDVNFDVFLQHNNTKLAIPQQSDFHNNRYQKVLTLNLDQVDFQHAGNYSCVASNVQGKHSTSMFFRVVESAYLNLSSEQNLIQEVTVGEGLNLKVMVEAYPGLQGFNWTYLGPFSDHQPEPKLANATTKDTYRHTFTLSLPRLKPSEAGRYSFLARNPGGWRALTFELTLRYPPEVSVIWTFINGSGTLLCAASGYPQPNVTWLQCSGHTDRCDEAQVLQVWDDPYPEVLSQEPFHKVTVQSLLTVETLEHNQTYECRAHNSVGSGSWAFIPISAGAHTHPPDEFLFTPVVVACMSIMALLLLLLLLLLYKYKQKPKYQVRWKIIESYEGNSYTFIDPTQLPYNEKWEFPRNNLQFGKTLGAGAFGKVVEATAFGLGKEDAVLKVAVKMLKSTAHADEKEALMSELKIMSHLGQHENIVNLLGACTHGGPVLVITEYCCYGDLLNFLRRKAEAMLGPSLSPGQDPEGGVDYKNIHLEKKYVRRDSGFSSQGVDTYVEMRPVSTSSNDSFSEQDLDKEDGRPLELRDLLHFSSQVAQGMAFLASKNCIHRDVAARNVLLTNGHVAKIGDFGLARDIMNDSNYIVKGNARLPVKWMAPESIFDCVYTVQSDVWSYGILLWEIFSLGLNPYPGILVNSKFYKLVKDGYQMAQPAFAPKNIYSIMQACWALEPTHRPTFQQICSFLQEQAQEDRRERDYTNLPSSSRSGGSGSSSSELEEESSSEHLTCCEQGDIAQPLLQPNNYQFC
# HCK = HCK (Homo sapiens (Human), UniProt P08631); type: biochemical; details: Kinase Profiler
# [3] = Human hepatocyte stability; type: in vitro ADME; details: human, hepatocytes
# [4] = Mouse hepatocyte stability; type: in vitro ADME; details: hepatocytes
# KASUMI-1 cell line = assay: Growth inhibition (GI50) of AML cell lines; type: cell-based; details: Homo sapiens, Kasumi 1; pMEF2C-positive; read-out: GI50 against KASUMI-1 cell line
# MV4-11 cell line = assay: Growth inhibition (GI50) of AML cell lines; type: cell-based; details: Homo sapiens, MV4-11; pMEF2C-positive; read-out: GI50 against MV4-11 cell line
# [5] = test system: SIK3 WT and KO MC38 clones; assay: TNF-mediated killing of SIK3 wildtype vs SIK3 knockout MC38 clones (CTG); type: cell-based, mouse; details: sub-optimal TNF (<10 ng/ml), 72 h
# Protocol: The assay was performed as follows: MC38 SIK3 KO clones were generated using CRISPR. Cells were transfected with RNP complexes (Cas9+gRNA) containing gRNAS targeting SIK3 or non-targeting sequences (control). […] Subsequently, single cell clones were generated by limiting dilution. CRISPR-derived mutations in single clones were detected by next-generation sequencing and analysed using CRISPResso. Knockout and wildtype clones were selected and plated overnight. […] Cells treated with different concentrations of inhibitor but without TNF served as no TNF control. Cell viability was measured by CTG assay.
# [6] = in vivo, po, 30 mg/kg
# [7] = female, C57BL/6, mouse, in vivo, 7 days
# in vivo = details: male, CD1, mouse, po, 30 mg/kg
# in vitro [8] = details: human, microsomes
# in vitro [9] = details: mouse, microsomes
# SIK2 [10] = target: T2, SIK2; assay: SIK2 kinase inhibition (IC50); details: read-out: Kinase: IC50 (nM) SIK2
# SIK3 [11] = target: T1, SIK3; assay: SIK3 kinase inhibition (IC50)
# [12] = Human plasma-protein binding
# [13] = Murine plasma protein binding
# MDR1 (P-gp) = MDR1 (P-gp) (Homo sapiens (Human), UniProt P08183); assay: MDR1-MDCK effective efflux assay; details: dog; for efflux ratio: Table 5.1B
# [14] = target: MDR1 pump (P-gp), MDCK-MDR1 cells (Homo sapiens (Human), UniProt P08183); assay: MDR1-MDCK effective efflux assay; details: Table 5.1B
# [15] = MDCK wild type permeability/efflux; details: dog
# [16] = Screening PK in mice after 30 mg/kg po
# [17] = Metabolite profile in hepatocytes / in vivo
# Description: Metabolites are identified using high-resolution mass spectrometry.
# [18] = test system: MC38 colorectal carcinoma tumours; assay: MC38 syngeneic mouse tumour model (Example 8.1); details: MC38; 40 mg/Kg, BID po
# [19] = test system: HDAC4 phosphorylation in PANC-1 cells; assay: HDAC4 phosphorylation (Meso Scale Discovery assay); details: 10 ng/mL rHuTNF, 3 h
# [20] = test system: MC38 murine tumour cell line; assay: TNF-sensitised cell viability assay (CellTiter-Glo); details: Mus musculus; for IC50: MC-38, read-out: MC38 IC50 (at 100 ng/mL rMuTNF)
# HCT116 cells = assay: as above; details: Homo sapiens, HCT-116, read-out: HCT116 IC50 (at 10 ng/ml rHuTNF)
# [21] = test system: NFKB activity in PANC-1 cells; assay: TNF-induced NFKB activity (NFKB-dependent luciferase reporter); details: 10 ng/ml rHuTNF, PANC-1 reporter cells
# [22] = test system: NFKB activity in MC38 cells; assay: as above; details: 10 ng/ml rMuTNF
# PANC1 cells = assay: TNF-sensitised cell viability assay (CellTiter-Glo); details: Homo sapiens, PANC-1, read-out: PANC IC50 (at 100 ng/ml rHuNF)
# [23] = total plasma concentration at 30 mg/kg p.o dose, fold of C7 (C7 = 1×)
# Chain of ABL1 wt (P00519 118-535 limits assumed): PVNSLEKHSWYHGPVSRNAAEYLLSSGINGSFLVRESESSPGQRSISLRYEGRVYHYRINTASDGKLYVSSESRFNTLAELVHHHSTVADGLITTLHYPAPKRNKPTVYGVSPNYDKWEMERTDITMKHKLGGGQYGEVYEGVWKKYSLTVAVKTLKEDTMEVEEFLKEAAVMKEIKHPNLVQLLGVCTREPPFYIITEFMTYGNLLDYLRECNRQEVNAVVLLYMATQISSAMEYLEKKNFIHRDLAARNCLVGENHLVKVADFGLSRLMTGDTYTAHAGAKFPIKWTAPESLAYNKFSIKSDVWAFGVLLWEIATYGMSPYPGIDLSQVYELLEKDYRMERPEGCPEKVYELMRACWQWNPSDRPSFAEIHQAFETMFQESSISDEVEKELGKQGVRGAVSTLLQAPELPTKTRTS
smiles,measurement,setting,value
Cc1nc(Nc2ncc(C(=O)Nc3c(Cl)ccnc3C)s2)cc(N2CCN(C)CC2)n1 [Compound C10],IC50,ABL1 wt,0.0043 µM
same,IC50,SRC (GST-HIS-tag),< 0.0015 µM
same,IC50,SIK3 [1]; read-out: SIK3 IC50,0.493 µM
same,IC50,SIK2 [2],0.138 µM
"Cc1nc(Nc2ncc(C(=O)Nc3c(C(F)F)csc3Cl)s2)cc(N2CCN(CCO)CC2)n1 [Compound E4, N-(2-chloro-4-(difluoromethyl)thiophen-3-yl)-2-((6-(4-(2-hydroxyethyl)piperazin-1-yl)-2-methylpyrimidin-4-yl)amino)thiazole-5-carboxamide]",CSF1R residual activity,CSF1R,less than 1%
same,HCK residual activity,HCK,less than 1%
same,half-life,"[3]; read-out: Human hepatocyte stability, Half-life",1.07 h
same,microsomal CLint,"[3]; read-out: Human hepatocyte stability, Intrinsic clearance",22 µL/min/mg
same,half-life,[3]; read-out: half-life in the presence of human hepatocytes (converted),~1 h
same,half-life,[4],1.3 h
same,microsomal CLint,"[4]; read-out: Mouse hepatocyte stability, Intrinsic clearance",18 µL/min/mg
same,GI50,KASUMI-1 cell line,< 0.0075 µM
same,GI50,MV4-11 cell line,< 0.75 µM
same,TNF-mediated killing in SIK3 WT vs KO MC38 clones,[5],induced TNF-mediated killing only in SIK3 WT clones
same,"SIK3 IC50 (nM), relative to C7",SIK3 [1]; fold of the value of compound C7 (C7 = 1×),0.6×
same,"% AUCextrap, Free","[6]; male, CD1, mouse",0.31%
same,"% AUCextrap, Total","[6]; male, CD1, mouse",0.31%
same,"AUCinf (nM*h), Free","[6]; male, CD1, mouse",148.39 nM·h
same,"AUClast (nM*h), Free","[6]; male, CD1, mouse",147.93 nM·h
same,"Rsq, Free",[6]; mouse,0.90
same,"Rsq, Total",[6]; mouse,0.90
same,DLT@BID dosing,[7],60 to 80 mg/kg
same,DLT@QD dosing,[7],n.d. @80 mg/kg
same,HRD in vivo @BID,[7],33 mg/kg
same,HRD in vivo @QD,[7],80 mg/kg
same,AUC(0-inf),in vivo,5.5 µM·h
same,AUC(0-t),in vivo,5.48 µM·h
same,Cmax,in vivo,1240 ng/mL
same,MRT last,in vivo,5.88 h
same,Tmax,in vivo,2 h
same,half-life,in vivo,4.49 h
same,half-life,in vitro [8],0.367 h
same,microsomal CLint,in vitro [8],65 µL/min/mg
same,half-life,in vitro [9],0.333 h
same,microsomal CLint,in vitro [9],70 µL/min/mg
same,IC50,SIK2 [10],< 20 nM
same,IC50,SIK3 [11]; read-out: Kinase: IC50 (nM) SIK3,< 20 nM
same,"Human plasma-protein binding, Percentage unbound (%)",[12]; Table 5.1A,<1%
same,recovery at 4 h,"[12]; human, plasma",77%
same,"Murine plasma protein binding, Percentage unbound (%)",[13]; Table 5.1A,2%
same,recovery at 4 h,"[13]; mouse, plasma",80%
same,Papp,MDR1 (P-gp); MDCK-MDR1,3 ×10⁻⁶ cm/s
same,efflux ratio,"MDR1 (P-gp); MDCK-MDR1, MDCK-MDR1 cells, Mean Efflux Ratio (MDR1)",40 to 50
same,efflux ratio,"MDR1 (P-gp); MDCK-MDR1, P-gP driven efflux ratio (MDR1/wt)",11
same,"MDCK-MDR1 cells, Mean Efflux Ratio (MDR1)",[14],43
same,Papp,[15],5 ×10⁻⁶ cm/s
same,efflux ratio,[15],4.1
same,fold increase of concentration at 6 h compared to dasatinib,"[16]; mice, 30 mg/kg po, 6 h",3 fold
same,fold improvement of free serum concentration over C7,"[16]; mouse, in vivo",5 fold
same,fold improvement of total serum concentration over C7,"[16]; mouse, in vivo",9.6 fold
same,Cmax at 2 h,"[16]; mouse, plasma, po, 30 mg/kg",1210 ng/mL
same,concentration at 6 h,"[16]; mouse, plasma, po, 30 mg/kg, Free plasma concentration after 6 h (nM), mice, 30 mg/kg po, 6 h",17.9 nM
same,concentration at 6 h,"[16]; mouse, plasma, po, 30 mg/kg, Plasma concentration after 6 h (nM), mice, 30 mg/kg po, 6 h",662 nM
same,"AUC0-last (nM*h), relative to C7",[16]; [23],4.7×
same,"C max (ng/ml), relative to C7",[16]; [23],2.6×
same,"MRT0-last (h), relative to C7",[16]; [23],2×
same,"t1/2 (h), relative to C7",[16]; [23],3.2×
same,quinone-imine reactive metabolite,[17],not observed
same,Body weight increase (%),[18],12.0%
same,Non-treatment related death,[18],3/16
same,Tumour growth inhibition (%),[18],64%
same,Inhibition of HDAC4 phosphorylation,[19],++
same,IC50,[20],< 0.1 µM
same,EC50,"[20]; MC-38, read-out: mean EC50 of sensitising MC38 tumour cells to TNF-mediated killing",< 0.1 µM
same,IC50,HCT116 cells,< 0.1 µM
same,Inhibition of NFKB activity (PANC-1),[21],++
same,Inhibition of NFKB activity (MC38),[22],++
"Cc1nc(Nc2ncc(C(=O)Nc3c(C(F)F)csc3Cl)s2)cc(N2CCN(C)C(C)C2)n1 (racemic) [Compound E16, N-(2-chloro-4-(difluoromethyl)thiophen-3-yl)-2-((2-methyl-6-(3,4-dimethylpiperazin-1-yl)pyrimidin-4-yl)amino)thiazole-5-carboxamide]",IC50,SIK2 [10],< 20 nM
same,IC50,SIK3 [11],20 to 50 nM
same,IC50,[20],< 0.1 µM
same,IC50,HCT116 cells,< 0.1 µM
same,IC50,PANC1 cells,< 0.1 µM

# Source: US20230348453A1, “HALOGENATED-HETEROARYL AND OTHER HETEROCYCLIC KINASE INHIBITORS, AND USES THEREOF” (iOmx Therapeutics AG, priority 2020, published 2023)
